Experimental data from ChEMBL document CHEMBL3112424, “Discovery and optimization of pyrimidone indoline amide PI3Kβ inhibitors for the treatment of phosphatase and tensin homologue (PTEN)-deficient cancers” (J Med Chem, 2014).

Legend:
[1] = Plasma concentration in Balb/c mouse at 100 mg/kg, po measured for 5 hrs; assay type: ADME, organism-based; parameters: dose 100 mg/kg, route oral
[2] = Plasma concentration in Balb/c mouse at 100 mg/kg, po measured for 12 hrs; assay type: ADME, organism-based; parameters: dose 100 mg/kg, route oral
[3] = Half life in Beagle dog at 10 mg/kg, po; assay type: ADME, organism-based, Canis lupus familiaris; parameters: dose 10 mg/kg, route oral; settings: in vivo
[4] = Tmax in Beagle dog at 10 mg/kg, po; assay type: ADME, organism-based, Canis lupus familiaris; parameters: dose 10 mg/kg, route oral; settings: in vivo
[5] = Half life in Beagle dog at 3 mg/kg, iv; assay type: ADME, organism-based, Canis lupus familiaris; parameters: dose 3 mg/kg, route intravenous; settings: in vivo
[6] = Volume of distribution at steady state in Beagle dog at 3 mg/kg, iv; assay type: ADME, organism-based, Canis lupus familiaris; parameters: dose 3 mg/kg, route intravenous; settings: in vivo, read-out: Vdss
[7] = Clearance in Beagle dog at 3 mg/kg, iv; assay type: ADME, organism-based, Canis lupus familiaris; parameters: dose 3 mg/kg, route intravenous; settings: in vivo
[8] = AUC (infinity) in Beagle dog at 3 mg/kg, iv; assay type: ADME, organism-based, Canis lupus familiaris; parameters: time infinity, dose 3 mg/kg, route intravenous; settings: plasma
[9] = Cmax in Beagle dog at 3 mg/kg, iv; assay type: ADME, organism-based, Canis lupus familiaris; parameters: dose 3 mg/kg, route intravenous; settings: in vivo
[10] = Oral bioavailability in nude rat at 10 mg/kg; assay type: ADME, organism-based; settings: in vivo
[11] = AUC (infinity) in nude rat at 10 mg/kg, po; assay type: ADME, organism-based; parameters: time infinity, dose 10 mg/kg, route oral; settings: plasma
[12] = Cmax in nude rat at 10 mg/kg, po; assay type: ADME, organism-based; parameters: dose 10 mg/kg, route oral; settings: in vivo
[13] = Half life in nude rat at 3 mg/kg, iv; assay type: ADME, organism-based; parameters: dose 3 mg/kg, route intravenous; settings: in vivo
[14] = Volume of distribution at steady state in nude rat at 3 mg/kg, iv; assay type: ADME, organism-based; parameters: dose 3 mg/kg, route intravenous; settings: in vivo, read-out: Vdss
[15] = AUC (infinity) in nude rat at 3 mg/kg, iv; assay type: ADME, organism-based; parameters: time infinity, dose 3 mg/kg, route intravenous; settings: plasma
[16] = Cmax in nude rat at 3 mg/kg, iv; assay type: ADME, organism-based; parameters: dose 3 mg/kg, route intravenous; settings: in vivo
[17] = tested on: Mus musculus; assay: Toxicity in SCID mouse xenografted with BRAF-V600E/PTEN-deficient human UACC62 cells assessed as body weight loss at 150 mg/kg, po bid; assay type: organism-based, UACC-62; parameters: dose 150 mg/kg, route oral; settings: in vivo
[18] = tested on: Mus musculus; assay: Toxicity in SCID mouse xenografted with BRAF-V600E/PTEN-deficient human UACC62 cells at 150 mg/kg, po bid; assay type: organism-based, UACC-62; parameters: dose 150 mg/kg, route oral; settings: in vivo
[19] = tested on: Plasma; assay: Fraction unbound in SCID mouse plasma xenografted with BRAF-V600E/PTEN-deficient human UACC62 cells at 100 mg/kg, po; assay type: ADME, organism-based, UACC-62; parameters: dose 100 mg/kg, route oral; settings: in vivo
[20] = tested on: Mus musculus; assay: In vivo inhibition of PI3Kbeta in tumor of po dosed SCID mouse xenografted with BRAF-V600E/PTEN-deficient human UACC62 cells assessed as inhibition of Akt phosphorylation at S473; assay type: functional, organism-based; settings: UACC-62
[21] = tested on: Mus musculus; assay: In vivo inhibition of PI3Kbeta in tumor of SCID mouse xenografted with BRAF-V600E/PTEN-deficient human UACC62 cells assessed as inhibition of Akt phosphorylation at S473 at 200 mg/kg, po up to 6 hrs; assay type: functional; settings: UACC-62, 6 h
[22] = tested on: Mus musculus; assay: Toxicity in SCID mouse xenografted with PTEN-deficient human PC3 cells assessed as body weight loss at 150 mg/kg, po bid; assay type: organism-based, PC-3; parameters: dose 150 mg/kg, route oral; settings: in vivo
[23] = tested on: PC-3; assay: Antitumor activity against PTEN-deficient human PC3 cells xenografted in SCID mouse assessed as tumor growth inhibition at 150 mg/kg, po bid measured on day 31; assay type: functional
[24] = Fraction unbound in SCID mouse plasma xenografted with PTEN-deficient human PC3 cells at 100 mg/kg, po; assay type: ADME, organism-based, PC-3; parameters: dose 100 mg/kg, route oral
[25] = Plasma concentration in SCID mouse xenografted with PTEN-deficient human PC3 cells at 100 mg/kg, po after 1 hr; assay type: ADME, organism-based, PC-3; parameters: dose 100 mg/kg, route oral
[26] = Apparent terminal half life in Balb/c mouse plasma at 100 mg/kg, po by LC-MS/MS analysis; assay type: ADME, organism-based; parameters: dose 100 mg/kg, route oral; settings: read-out: betat1/2(app) (converted)
[27] = Tmax in Balb/c mouse plasma at 100 mg/kg, po by LC-MS/MS analysis; assay type: ADME, organism-based; parameters: dose 100 mg/kg, route oral
[28] = Cmax in Balb/c mouse plasma at 100 mg/kg, po by LC-MS/MS analysis; assay type: ADME, organism-based; parameters: dose 100 mg/kg, route oral
[29] = Apparent terminal half life in Balb/c mouse plasma at 10 mg/kg, po by LC-MS/MS analysis; assay type: ADME, organism-based; parameters: dose 10 mg/kg, route oral; settings: read-out: betat1/2(app) (converted)
[30] = Cmax in Balb/c mouse plasma at 10 mg/kg, po after 15 to 30 mins by LC-MS/MS analysis; assay type: ADME, organism-based; parameters: dose 10 mg/kg, route oral
[31] = Apparent terminal half life in Balb/c mouse plasma at 3 mg/kg, iv by LC-MS/MS analysis; assay type: ADME, organism-based; parameters: dose 3 mg/kg, route intravenous; settings: read-out: betat1/2(app) (converted)
[32] = Volume of distribution at steady state in Balb/c mouse plasma at 3 mg/kg, iv by LC-MS/MS analysis; assay type: ADME, organism-based; parameters: dose 3 mg/kg, route intravenous; settings: read-out: Vdss
[33] = Clearance in Balb/c mouse plasma at 3 mg/kg, iv by LC-MS/MS analysis; assay type: ADME, organism-based; parameters: dose 3 mg/kg, route intravenous
[34] = AUC (infinity) in Balb/c mouse plasma at 3 mg/kg, iv by LC-MS/MS analysis; assay type: ADME, organism-based; parameters: time infinity, dose 3 mg/kg, route intravenous
[35] = Cmax in Balb/c mouse plasma at 3 mg/kg, iv by LC-MS/MS analysis; assay type: ADME, organism-based; parameters: dose 3 mg/kg, route intravenous
[36] = molecular target: Phosphatidylinositol 4-phosphate 3-kinase C2 domain-containing subunit alpha (Homo sapiens, UniProt O00443); assay: Inhibition of PI3KC2alpha (unknown origin)
[37] = molecular target: DNA-dependent protein kinase catalytic subunit (Homo sapiens, UniProt P78527); assay: Inhibition of DNA-PK (unknown origin)
[38] = molecular target: Serine/threonine-protein kinase mTOR (Homo sapiens, UniProt P42345); assay: Inhibition of mTOR (unknown origin)
[39] = Metabolic stability in human liver microsomes at 5 uM after 20 mins; settings: liver microsomes
[40] = Metabolic stability in mouse liver microsomes at 5 uM after 20 mins; settings: liver microsomes
[41] = Apparent permeability in human Caco2 cells at 5 uM after 20 mins; settings: Caco-2
[42] = molecular target: T1, Phosphatidylinositol 4,5-bisphosphate 3-kinase catalytic subunit beta isoform (Homo sapiens, UniProt P42338); assay: Inhibition of PI3Kbeta-mediated Akt phosphorylation at S473 in PTEN-deficient human PC3 cells after 0.5 to 2 hrs by Immunoblotting assay; assay type: cell-based, PC-3
Target sequence in this assay (P42338 whole entry, canonical isoform): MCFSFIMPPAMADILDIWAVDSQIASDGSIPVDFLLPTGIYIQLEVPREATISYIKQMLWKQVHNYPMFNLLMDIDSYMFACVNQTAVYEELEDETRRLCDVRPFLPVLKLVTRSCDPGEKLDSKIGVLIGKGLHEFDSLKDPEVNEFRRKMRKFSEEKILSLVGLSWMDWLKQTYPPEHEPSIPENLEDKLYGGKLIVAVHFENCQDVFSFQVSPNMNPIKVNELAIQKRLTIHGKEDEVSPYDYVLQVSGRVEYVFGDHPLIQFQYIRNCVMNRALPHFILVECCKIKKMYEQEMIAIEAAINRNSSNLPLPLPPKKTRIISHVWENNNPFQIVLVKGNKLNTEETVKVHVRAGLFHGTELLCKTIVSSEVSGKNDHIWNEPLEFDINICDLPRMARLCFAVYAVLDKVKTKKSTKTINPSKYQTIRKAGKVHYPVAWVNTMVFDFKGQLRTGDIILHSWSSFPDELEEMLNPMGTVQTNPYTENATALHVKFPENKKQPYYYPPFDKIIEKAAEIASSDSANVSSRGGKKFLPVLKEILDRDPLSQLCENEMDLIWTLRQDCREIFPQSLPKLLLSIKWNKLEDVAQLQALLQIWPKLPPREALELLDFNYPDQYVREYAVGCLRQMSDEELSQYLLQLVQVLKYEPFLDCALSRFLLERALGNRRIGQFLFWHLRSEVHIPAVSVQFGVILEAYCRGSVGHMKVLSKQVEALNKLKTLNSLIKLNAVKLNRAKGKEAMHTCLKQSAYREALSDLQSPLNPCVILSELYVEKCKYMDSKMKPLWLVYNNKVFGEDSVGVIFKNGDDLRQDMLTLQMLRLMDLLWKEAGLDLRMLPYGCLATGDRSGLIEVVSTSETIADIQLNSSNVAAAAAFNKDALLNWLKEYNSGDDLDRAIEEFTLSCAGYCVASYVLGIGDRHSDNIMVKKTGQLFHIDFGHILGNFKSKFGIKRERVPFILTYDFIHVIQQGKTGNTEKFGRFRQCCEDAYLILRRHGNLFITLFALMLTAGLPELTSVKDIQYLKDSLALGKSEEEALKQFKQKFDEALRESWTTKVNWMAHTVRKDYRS

[43] = molecular target: Phosphatidylinositol 4,5-bisphosphate 3-kinase catalytic subunit gamma isoform (Homo sapiens, UniProt P48736); assay: Inhibition of C-terminal ploy-His-tagged human PI3Kgamma expressed in baculovirus-infected sf9 cells using PI(4,5)P2 as substrate after 15 mins by HTRF assay
[44] = molecular target: T1, Phosphatidylinositol 4,5-bisphosphate 3-kinase catalytic subunit beta isoform; assay: Inhibition of N-terminal ploy-His-tagged human PI3Kbeta expressed in baculovirus-infected sf21 cells using PI(4,5)P2 as substrate after 15 mins by HTRF assay
Target sequence in this assay (P42338 whole entry, canonical isoform): as above

[45] = molecular target: T1, Phosphatidylinositol 4,5-bisphosphate 3-kinase catalytic subunit beta isoform; settings: UACC-62
Target sequence in this assay (P42338 whole entry, looked up, canonical isoform): as the sequence (P42338 whole entry, canonical isoform) above
Description: Inhibition of PI3Kbeta-mediated Akt phosphorylation at S473 in BRAF-V600E/PTEN-deficient human UACC62 cells

Sequence of Phosphatidylinositol 4,5-bisphosphate 3-kinase catalytic subunit gamma isoform (P48736 whole entry, canonical isoform): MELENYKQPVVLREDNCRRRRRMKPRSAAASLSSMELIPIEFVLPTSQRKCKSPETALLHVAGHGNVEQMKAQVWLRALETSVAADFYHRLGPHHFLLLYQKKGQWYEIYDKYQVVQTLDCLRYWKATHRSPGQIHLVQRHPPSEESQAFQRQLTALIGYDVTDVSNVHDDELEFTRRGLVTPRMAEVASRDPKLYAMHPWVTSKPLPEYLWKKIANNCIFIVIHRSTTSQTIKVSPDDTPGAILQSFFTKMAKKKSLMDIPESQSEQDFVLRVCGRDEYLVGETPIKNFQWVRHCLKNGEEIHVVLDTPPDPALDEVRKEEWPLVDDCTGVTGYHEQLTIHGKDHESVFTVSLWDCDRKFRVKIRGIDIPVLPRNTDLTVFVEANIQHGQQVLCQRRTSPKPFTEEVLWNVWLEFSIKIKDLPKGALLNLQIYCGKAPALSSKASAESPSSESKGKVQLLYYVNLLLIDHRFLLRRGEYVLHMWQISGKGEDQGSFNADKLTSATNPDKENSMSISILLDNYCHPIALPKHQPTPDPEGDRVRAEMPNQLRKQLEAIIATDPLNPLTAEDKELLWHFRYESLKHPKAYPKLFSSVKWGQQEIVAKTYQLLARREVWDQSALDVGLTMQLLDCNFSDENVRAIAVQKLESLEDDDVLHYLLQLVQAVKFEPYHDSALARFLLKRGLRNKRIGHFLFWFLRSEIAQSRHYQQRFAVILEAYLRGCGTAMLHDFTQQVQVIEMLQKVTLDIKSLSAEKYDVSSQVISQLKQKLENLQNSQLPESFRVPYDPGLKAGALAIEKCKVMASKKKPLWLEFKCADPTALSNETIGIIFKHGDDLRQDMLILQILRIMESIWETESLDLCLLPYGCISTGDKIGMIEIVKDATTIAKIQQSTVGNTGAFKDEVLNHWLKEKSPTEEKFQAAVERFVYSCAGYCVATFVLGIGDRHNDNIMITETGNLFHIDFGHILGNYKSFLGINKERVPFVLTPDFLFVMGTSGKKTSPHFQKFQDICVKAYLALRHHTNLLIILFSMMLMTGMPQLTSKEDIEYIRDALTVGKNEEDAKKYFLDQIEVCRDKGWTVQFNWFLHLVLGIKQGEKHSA
Sequence of Phosphatidylinositol 4-phosphate 3-kinase C2 domain-containing subunit alpha (O00443 whole entry, the tested form may be a part): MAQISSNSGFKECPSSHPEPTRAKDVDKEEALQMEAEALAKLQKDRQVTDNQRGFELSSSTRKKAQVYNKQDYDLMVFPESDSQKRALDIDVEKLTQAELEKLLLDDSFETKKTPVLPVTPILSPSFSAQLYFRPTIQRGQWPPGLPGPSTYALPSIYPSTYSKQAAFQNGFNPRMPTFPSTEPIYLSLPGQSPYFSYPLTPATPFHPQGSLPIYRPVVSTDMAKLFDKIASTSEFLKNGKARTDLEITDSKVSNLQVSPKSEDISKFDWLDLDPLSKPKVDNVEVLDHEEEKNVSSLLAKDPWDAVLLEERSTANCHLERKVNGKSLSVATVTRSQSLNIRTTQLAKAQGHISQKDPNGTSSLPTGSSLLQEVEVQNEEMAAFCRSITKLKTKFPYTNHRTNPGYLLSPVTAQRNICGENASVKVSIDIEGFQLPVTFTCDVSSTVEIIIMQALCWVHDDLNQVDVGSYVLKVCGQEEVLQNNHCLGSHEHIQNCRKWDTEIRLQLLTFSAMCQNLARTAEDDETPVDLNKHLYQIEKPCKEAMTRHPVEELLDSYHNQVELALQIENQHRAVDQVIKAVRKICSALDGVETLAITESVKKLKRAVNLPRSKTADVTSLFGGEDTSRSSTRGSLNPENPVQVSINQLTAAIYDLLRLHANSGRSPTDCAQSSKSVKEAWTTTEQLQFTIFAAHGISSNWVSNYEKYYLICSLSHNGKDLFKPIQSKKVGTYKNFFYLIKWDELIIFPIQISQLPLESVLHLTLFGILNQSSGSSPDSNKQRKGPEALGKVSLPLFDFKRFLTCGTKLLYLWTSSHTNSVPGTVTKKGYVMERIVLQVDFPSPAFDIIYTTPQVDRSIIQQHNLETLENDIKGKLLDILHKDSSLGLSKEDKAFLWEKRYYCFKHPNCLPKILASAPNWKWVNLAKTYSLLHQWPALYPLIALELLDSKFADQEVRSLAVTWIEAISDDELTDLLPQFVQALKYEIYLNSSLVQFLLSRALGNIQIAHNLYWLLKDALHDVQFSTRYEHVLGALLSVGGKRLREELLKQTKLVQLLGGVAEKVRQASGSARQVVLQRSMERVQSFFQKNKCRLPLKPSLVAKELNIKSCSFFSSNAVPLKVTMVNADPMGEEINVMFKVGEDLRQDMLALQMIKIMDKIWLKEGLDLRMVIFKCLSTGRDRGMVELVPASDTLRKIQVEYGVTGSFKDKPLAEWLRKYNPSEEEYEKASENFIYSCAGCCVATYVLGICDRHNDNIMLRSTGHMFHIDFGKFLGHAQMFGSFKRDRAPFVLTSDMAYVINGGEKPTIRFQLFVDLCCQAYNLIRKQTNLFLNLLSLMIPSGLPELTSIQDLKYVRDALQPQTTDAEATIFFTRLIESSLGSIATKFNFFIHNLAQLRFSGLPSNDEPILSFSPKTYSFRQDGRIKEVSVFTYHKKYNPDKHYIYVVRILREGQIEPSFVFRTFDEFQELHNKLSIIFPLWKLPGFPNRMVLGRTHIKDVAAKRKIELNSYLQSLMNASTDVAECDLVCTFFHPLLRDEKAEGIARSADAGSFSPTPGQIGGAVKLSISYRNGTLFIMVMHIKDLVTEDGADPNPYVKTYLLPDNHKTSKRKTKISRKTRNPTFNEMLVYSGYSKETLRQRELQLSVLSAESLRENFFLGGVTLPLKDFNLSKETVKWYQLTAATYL

Q: Which concentration at 5 h [1] does the source give for C[C@H]1Cc2ccccc2N1C(=O)Cc1nc(N2CCOCC2)cc(=O)[nH]1 [SAR-260301] here?
A: The concentration at 5 h was > 1000 nM.

Q: What about the concentration at 12 h [2] of the same compound?
A: The concentration at 12 h was > 100 nM.

Q: What about the half-life [3] of the same compound?
A: The half-life was 270 min.

Q: And the Tmax [4]?
A: The Tmax was 30 min.

Q: What about the half-life [5] of the same compound?
A: Its half-life is > 300 min.

Q: What about the Vd [6] of the same compound?
A: The Vd was > 3 L/kg.

Q: What about the clearance [7] of the same compound?
A: Its clearance is 6.67 mL/min/kg.

Q: And the AUC(0-inf) [8]?
A: Its AUC(0-inf) is 6580 ng·h/mL.

Q: And the Cmax [9]?
A: Its Cmax is 4920 ng/mL.

Q: What about the bioavailability [10] of the same compound?
A: The bioavailability was 70%.

Q: What about the AUC(0-inf) [11] of the same compound?
A: Its AUC(0-inf) is 2410 ng·h/mL.

Q: What about the Cmax [12] of the same compound?
A: Its Cmax is 1460 ng/mL.

Q: What about the half-life [13] of the same compound?
A: The half-life was 52.2 min.

Q: What about the Vd [14] of the same compound?
A: The Vd was 8.1 L/kg.

Q: And the AUC(0-inf) [15]?
A: Its AUC(0-inf) is 864 ng·h/mL.

Q: And the Cmax [16]?
A: The Cmax was 1200 ng/mL.

Q: What about the Activity [17] of the same compound?
A: The Activity was “Non-toxic”.

Q: What about the Activity [18] of the same compound?
A: The Activity was “Non-toxic”.

Q: And the “Cp(f)” value [19]?
A: The value was 1820 nM.

Q: What about the EC50 [20] of the same compound?
A: The EC50 was 4550 nM.

Q: What about the inhibition in vivo at 200 mg/kg [21] of the same compound?
A: Its inhibition in vivo at 200 mg/kg is > 50%.

Q: And the Activity [22]?
A: Its Activity is “Non-toxic”.

Q: And the T/C [23]?
A: The T/C was 61%.

Q: What about the fraction unbound [24] of the same compound?
A: Its fraction unbound is 0.4.

Q: What about the concentration at 1 h [25] of the same compound?
A: The concentration at 1 h was 24900 nM.

Q: And the half-life [26]?
A: Its half-life is 150 min.

Q: And the Tmax [27]?
A: Its Tmax is 15 min.

Q: What about the Cmax [28] of the same compound?
A: Its Cmax is 8960 ng/mL.

Q: And the half-life [29]?
A: Its half-life is 84 min.

Q: What about the Cmax [30] of the same compound?
A: Its Cmax is 848 ng/mL.

Q: What about the half-life [31] of the same compound?
A: Its half-life is 52.2 min.

Q: What about the Vd [32] of the same compound?
A: Its Vd is 1 L/kg.

Q: What about the clearance [33] of the same compound?
A: Its clearance is 83.3 mL/min/kg.

Q: And the AUC(0-inf) [34]?
A: Its AUC(0-inf) is 600 ng·h/mL.

Q: What about the Cmax [35] of the same compound?
A: The Cmax was 1870 ng/mL.

Q: And the IC50 [36]?
A: The IC50 was > 10000 nM.

Q: And the IC50 [37]?
A: The IC50 was 2000 nM.

Q: And the IC50 [38]?
A: Its IC50 is > 10000 nM.

Q: And the remaining at 20 min, 5 µM [39]?
A: The remaining at 20 min, 5 µM was 12%.

Q: What about the remaining at 20 min, 5 µM [40] of the same compound?
A: The remaining at 20 min, 5 µM was 19%.

Q: What about the Papp at 20 min, 5 µM [41] of the same compound?
A: Its Papp at 20 min, 5 µM is 4.8 ×10⁻⁶ cm/s.

Q: What about the IC50 [42] of the same compound?
A: The IC50 was 49 nM.

Q: What about the IC50 [43] of the same compound?
A: Its IC50 is 10000 nM.

Q: What about the IC50 [44] of the same compound?
A: Its IC50 is 23 nM.

Q: What about the IC90 [45] of the same compound?
A: Its IC90 is 2000 nM.
